Assay results reported in ChEMBL document CHEMBL1136365, “Hepatoprotective pyrrole derivatives of Lycium chinense fruits” (2003).

Legend:
Type in all cases: functional, Hepatocyte
Rattus norvegicus [1] = species on record: Rattus norvegicus; assay: Tested for release of glutamic pyruvic transaminase (GPT) from CCl4 induced toxicity in primary cultures of rat hepatocytes at 0.1 uM concentration
Rattus norvegicus [2] = species on record: Rattus norvegicus; assay: Tested for release of glutamic pyruvic transaminase (GPT) from CCl4 induced toxicity in primary cultures of rat hepatocytes at 10 uM concentration
Rattus norvegicus [3] = species on record: Rattus norvegicus; assay: Tested for release of glutamic pyruvic transaminase (GPT) from CCl4 induced toxicity in primary cultures of rat hepatocytes at 1 uM concentration
Rattus norvegicus [4] = species on record: Rattus norvegicus; assay: Tested for release of glutamic pyruvic transaminase (GPT) from CCl4 induced toxicity in primary cultures of rat hepatocytes at 0.01 uM concentration
Rattus norvegicus [5] = species on record: Rattus norvegicus; assay: Tested for release of glutamic pyruvic transaminase (GPT) from CCl4 induced toxicity in primary cultures of rat hepatocytes at 50 uM concentration

SMILES | Relative protection (Rattus norvegicus [1]) [%] | Relative protection (Rattus norvegicus [2]) [%] | Relative protection (Rattus norvegicus [3]) [%] | Relative protection (Rattus norvegicus [4]) [%] | Relative protection (Rattus norvegicus [5]) [%]
O=Cc1ccc(CO)n1CCCC(=O)O | 64.4 | 3.2 | 39.7 | 12.4 | 
COC(=O)CCCn1c(C=O)ccc1CO | 30.8 | 20.8 | 40.8 | 5.1 | 
COCc1ccc(C=O)n1CCCC(=O)OC | 38.5 | 15.9 | 13.2 | 8.9 | 
COCc1ccc(C=O)n1CCCC(=O)O | 65.8 | 14.2 | 29.2 | 36 | 
COc1cc([C@H]2Oc3cc([C@H]4Oc5cc(O)cc(O)c5C(=O)[C@@H]4O)ccc3O[C@@H]2CO)ccc1O [SILIBININ] |  | 28.8 | 14.6 |  | 45.5
